The IC50 is the concentration that inhibits the measured activity by half.

In the assay the test system is PC3 cells. Description: xCELLigence RTCA real-time cell invasion assay (CIM plate, Matrigel) on PC3 prostate cancer cells. Type of assay: cell-based. To be noted: Homo sapiens, PC-3, compound 25 uM to 1 uM, cell index monitored for 72 hours, four-parameter dose-response curve, read-out: IC50, Effect of compounds on the invention on prostate cancer cells. The essentials: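 PC3 invasion through 5% Matrigel-coated CIM-plate upper chambers was tracked as impedance cell index over 72 h. Compound at 25–1 µM was present in both chambers, with 3×10^4 cells seeded in serum-free RPMI. IC50 came from a four-parameter fit, and IC90 was derived from IC50 and the Hill slope.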
Regarding `COCCOc1ccc(NC(=O)c2nn3c(-c4cn[nH]c4)cc(N4Cc5ccc(F)cc5C4)nc3c2C(C)C)cc1` [Compound 102, 5-(5-fluoroisoindolin-2-yl)-3-isopropyl-N-(4-(2-methoxyethoxy)phenyl)-7-(1H-pyrazol-4-yl)pyrazolo[1,5-a]pyrimidine-2-carboxamide], the IC50 worked out at 1.27 µM. The same measure for `CC(C)c1c(C(=O)Nc2ccc3cn[nH]c3c2)nn2c(-c3cn[nH]c3)cc(N3Cc4ccc(F)cc4C3)nc12` [Compound 104, 5-(5-fluoroisoindolin-2-yl)-N-(1H-indazol-6-yl)-3-isopropyl-7-(1H-pyrazol-4-yl)pyrazolo[1,5-a]pyrimidine-2-carboxamide]: 2.89 µM.

For the molecule `CC(C)c1c(C(=O)Nc2ccc(N3CCOCC3)cc2)nn2c(-c3cn[nH]c3)cc(N3Cc4ccc(F)cc4C3)nc12` [Compound 106, 5-(5-fluoroisoindolin-2-yl)-3-isopropyl-N-(4-morpholinophenyl)-7-(1H-pyrazol-4-yl)pyrazolo[1,5-a]pyrimidine-2-carboxamide], the IC50 was determined as 2.02 µM. The same measure for `CC(C)c1c(C(=O)Nc2ccc(N3CCOCC3)cc2)nn2c(-c3cn[nH]c3)cc(N3Cc4ccc(Cl)cc4C3)nc12` [Compound 107, 5-(5-chloroisoindolin-2-yl)-3-isopropyl-N-(4-morpholinophenyl)-7-(1H-pyrazol-4-yl)pyrazolo[1,5-a]pyrimidine-2-carboxamide]: 2.36 µM; for `CC(C)c1c(C(=O)Nc2cccc(N3CCOCC3)c2)nn2c(-c3cn[nH]c3)cc(N3Cc4ccc(Cl)cc4C3)nc12` [Compound 108, 5-(5-chloroisoindolin-2-yl)-3-isopropyl-N-(3-morpholinophenyl)-7-(1H-pyrazol-4-yl)pyrazolo[1,5-a]pyrimidine-2-carboxamide]: 18.7 µM.

For the molecule `COCCOc1ccc(NC(=O)c2nn3c(-c4cn[nH]c4)cc(N4Cc5ccc(Cl)cc5C4)nc3c2C(C)C)cc1` [Compound 109, 5-(5-chloroisoindolin-2-yl)-3-isopropyl-N-(4-(2-methoxyethoxy)phenyl)-7-(1H-pyrazol-4-yl)pyrazolo[1,5-a]pyrimidine-2-carboxamide], the IC50 came to 3.23 µM.

Turning to `CC(C)c1c(C(=O)Nc2ccc(OC3CCOCC3)cc2)nn2c(-c3cn[nH]c3)cc(N3Cc4ccc(Cl)cc4C3)nc12` [Compound 119, 5-(5-chloroisoindolin-2-yl)-3-isopropyl-7-(1H-pyrazol-4-yl)-N-(4-((tetrahydro-2H-pyran-4-yl)oxy)phenyl)pyrazolo[1,5-a]pyrimidine-2-carboxamide], the IC50 was determined as 3.15 µM. With `COc1ccc(F)c(NC(=O)c2nn3c(-c4cn[nH]c4)cc(N4Cc5ccc(Cl)cc5C4)nc3c2C(C)C)c1` [Compound 120, 5-(5-chloroisoindolin-2-yl)-N-(2-fluoro-5-methoxyphenyl)-3-isopropyl-7-(1H-pyrazol-4-yl)pyrazolo[1,5-a]pyrimidine-2-carboxamide] the figure was 4.94 µM; with `CC(C)c1c(C(=O)Nc2cccc(OC3CCOCC3)c2)nn2c(-c3cn[nH]c3)cc(N3Cc4ccc(F)cc4C3)nc12` [Compound 121, 5-(5-fluoroisoindolin-2-yl)-3-isopropyl-7-(1H-pyrazol-4-yl)-N-(3-((tetrahydro-2H-pyran-4-yl)oxy)phenyl)pyrazolo[1,5-a]pyrimidine-2-carboxamide], 2.75 µM; with `COc1cccc(NC(=O)c2nn3c(-c4cn[nH]c4)cc(N4Cc5ccc(F)cc5C4)nc3c2C(C)C)c1F` [Compound 122, N-(2-fluoro-3-methoxyphenyl)-5-(5-fluoroisoindolin-2-yl)-3-isopropyl-7-(1H-pyrazol-4-yl)pyrazolo[1,5-a]pyrimidine-2-carboxamide], 9.07 µM.

Take `CC(C)c1c(C(=O)Nc2ccc(OC3CCOCC3)cc2)nn2c(-c3cn[nH]c3)cc(N3Cc4ccc(F)cc4C3)nc12` [Compound 123, 5-(5-fluoroisoindolin-2-yl)-3-isopropyl-7-(1H-pyrazol-4-yl)-N-(4-((tetrahydro-2H-pyran-4-yl)oxy)phenyl)pyrazolo[1,5-a]pyrimidine-2-carboxamide]: the IC50 stood at 1.02 µM. The same measure for `COc1ccc(F)c(NC(=O)c2nn3c(-c4cn[nH]c4)cc(N4Cc5ccc(F)cc5C4)nc3c2C(C)C)c1` [Compound 124, N-(2-fluoro-5-methoxyphenyl)-5-(5-fluoroisoindolin-2-yl)-3-isopropyl-7-(1H-pyrazol-4-yl)pyrazolo[1,5-a]pyrimidine-2-carboxamide]: 1.15 µM. On to `COc1cccc(NC(=O)c2nn3c(-c4cn[nH]c4)cc(N4Cc5cccc(F)c5C4)nc3c2C(C)C)c1` [Compound 125, 5-(4-fluoroisoindolin-2-yl)-3-isopropyl-N-(3-methoxyphenyl)-7-(1H-pyrazol-4-yl)pyrazolo[1,5-a]pyrimidine-2-carboxamide], for which the IC50 turned out to be 7.62 µM. With `COc1cccc(NC(=O)c2nn3c(-c4cn[nH]c4)cc(N4Cc5cccc(Cl)c5C4)nc3c2C(C)C)c1` [Compound 126, 5-(4-chloroisoindolin-2-yl)-3-isopropyl-N-(3-methoxyphenyl)-7-(1H-pyrazol-4-yl)pyrazolo[1,5-a]pyrimidine-2-carboxamide] the figure was 1.21 µM.
